Like-named read-outs stand apart in the source and are kept apart here.

In one series the target is T1, Aurora-A kinase (Homo sapiens, UniProt O14965).
T1 sequence (O14965 1-403): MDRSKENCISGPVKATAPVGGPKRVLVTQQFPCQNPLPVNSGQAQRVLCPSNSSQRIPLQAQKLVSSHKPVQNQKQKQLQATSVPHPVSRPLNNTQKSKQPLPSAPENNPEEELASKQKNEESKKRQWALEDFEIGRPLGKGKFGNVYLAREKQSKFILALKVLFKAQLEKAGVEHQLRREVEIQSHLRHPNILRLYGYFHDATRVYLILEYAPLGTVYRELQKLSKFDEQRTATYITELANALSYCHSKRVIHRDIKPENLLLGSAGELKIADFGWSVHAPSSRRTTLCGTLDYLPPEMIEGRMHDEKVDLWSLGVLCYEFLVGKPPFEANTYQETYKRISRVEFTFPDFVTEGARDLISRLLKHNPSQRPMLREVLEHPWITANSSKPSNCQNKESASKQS
The experiment in a line: ChEF-based assay (PhosphoSens) of Aurora-A kinase activity.

For a further series, the system named is DLBC lymphoma cell lines. More on the design: method as in PMID 31850205. Particulars: cited from earlier work.
Series [1] relates to various cancerous cell lines. More on the design: method as in PMID 16204078. Particulars: cited from earlier work.
Series [2] concerns A375 melanoma human tumor xenograft. Set-up: method as in PMID 16204078. Particulars: A375 melanoma human tumor xenograft model; cited from earlier work. (A xenograft is tissue or cells of one species grown in another, often human tumour cells in immunodeficient mice.)

Experimental for Aurora-A kinase: The reaction wells were mixed, and the relative fluorescence unit (RFU) data were collected every 3 min for 30 min at 30 °C. The used λEx/Em of the chelated Mg^2+ with the Sox was 360/485 nm.

As usually defined, the IC50 is the concentration that gives 50% inhibition. Molecule “4-((5-amino-1-((3,5-bis(trifluoromethyl)phenyl)sulfonyl)-1H-1,2,4-triazol-3-yl)amino)benzenesulfonamide [Compound 1d]” returned an IC50 against Aurora-A kinase (Mean ± SEM of 3 independent experiments, 1.25 nM Aurora-A kinase, 15 µM ATP, 10 µM CSox-peptide substrate) of 1.78 ± 0.34 µM.

In general, melting point refers to the temperature, or range, at which the solid turns liquid. The molecule `Nc1nc(Nc2ccc(S(N)(=O)=O)cc2)nn1S(=O)(=O)c1ccccc1` [Compound 1a, 4-((5-amino-1-(phenylsulfonyl)-1H-1,2,4-triazol-3-yl)amino)benzenesulfonamide] returned a melting point of 229 to 231 °C. This molecule also showed an IC50 against Aurora-A kinase of 0.13 ± 0.06 µM. `Nc1nc(Nc2ccc(S(N)(=O)=O)cc2)nn1S(=O)(=O)c1c(F)cccc1F` [Compound 1b, 4-((5-amino-1-((2,6-difluorophenyl)sulfonyl)-1H-1,2,4-triazol-3-yl)amino)benzenesulfonamide] registered a half-maximal inhibitory concentration (IC50) at Aurora-A kinase of 0.21 ± 0.02 µM. Still for that read-out and setting: as for `Cc1ccc(S(=O)(=O)n2nc(Nc3ccc(S(N)(=O)=O)cc3)nc2N)cc1` [Compound 1c, 4-((5-amino-1-tosyl-1H-1,2,4-triazol-3-yl)amino)benzenesulfonamide], the figure is 0.23 ± 0.02 µM. As for `Nc1nc(Nc2ccc(S(N)(=O)=O)cc2)nn1C(=O)c1c(F)cccc1F` [JNJ-7706621], in the series with DLBC lymphoma cell lines, the “reversal of resistance to CD37-targeted radioimmunotherapy” value is reported as “promoted the reversal of resistance”. Further, the “growth inhibition of normal cells relative to cancerous cell lines” value in series [1] (normal cell growth) is “several folds less potent at inhibiting normal cell growth”. For the same molecule, in series [1] (various cancerous cell lines), the antiproliferative activity result is “potent antiproliferative activity”. Also, the tumor size result in series [2] was “significantly reduced the tumor size”.

Values taken from PMC8469531, “Design, Synthesis, and Biochemical Evaluation of New Triazole Derivatives as Aurora-A Kinase Inhibitors” (Molecules, 2021).
